Experimental data reported in patent publication US20100303904A1, “TABLET WITH REMEDIAL COMPOSITION AND METHODS FOR TREATING MEDICAL DISORDERS AND AILMENTS” (BIO-PRO MEDICAL LTD., priority 2007, published 2010).

Legend:
[1] = system: Aberrant Crypt Foci (ACF); assay: DMH-induced CRC model of aberrant crypt foci (ACF) in rats (Example 1); type: in vivo, Wistar rats; conditions: DMH 30 mg/kg rats; oral gavage; colons stained 60 days after DMH; Coltect 150 mg/kg, 5-ASA 50 mg/kg
Experimental: Age- and sex-matched 23 Wistar rats were purchased from the animal facilities at the Tel-Aviv Sourasky Medical Center (TASMC). The rats were injected subcutaneously twice a week for two weeks with 0.3 ml of 30 mg/kg body weight DMH (Sigma-Aldrich, Israel) dissolved in PBS, and groups (n=5) were randomly divided as follows (Table 1): The Coltect mixture was dissolved in a solution of DMSO (50%) and tap water. The solution was administered to the rats by oral gavage for five days, starting at the first day of DMH injections. During the experiment, the rats were weighed twice a week. Sixty days after DMH injections the rats were sacrificed by CO2 flow. The colons were removed and flushed with isotonic saline solution, opened longitudinally, cut into three parts of equal length, and labeled as proximal, middle and distal segments. The colons were laid open on a Wattman paper and fixed flat in 4% buffered formalin solution. The ACF were visualized and counted by using methylene blue staining (0.2% solution) and photographed. […] The number and multiplicity of ACF for each colonic segment were evaluated and recorded. The number and multiplicity of ACF were recorded separately for each segment. To determine multiplicity of ACF, the number of crypts in each focus was defined and recorded.

[2] = DSS-induced IBD model in mice (Example 2); type: in vivo, C57BL mice; conditions: first experiment (FIG. 4A); DSS 2.5%; Coltect 150 mg/kg, 5-ASA 50 mg/kg oral gavage 7 days
Experimental: Age- and sex-matched C57BL 5-weeks old female mice were obtained from Harlan Laboratories, Israel. […] Four mice received saline (2.5%) and served as the negative control group. The mice were randomly divided into groups (n=8) and received the corresponding treatment starting from the first day for 7 days (Table 3). The treatments were given in doses of 0.5 ml of tap water with 2% DMSO by oral gavage. The following doses were used: Coltect-150 mg/kg body weight; 5-ASA-50 mg/kg body weight. All mice were sacrificed 7 days after the enema, their spleen and colon were removed, fixed in 10% formalin for histological evaluation and parts were frozen at […] for later examination. For macroscopic injury evaluation a revised colonic damage scoring system was used as described by Morris et al. Thus, the severity of colitis was determined based on the following parameters: • 1. Disease Activity Index (DAI): weight loss, gross bleeding, stool consistency (Table 2)—were daily recorded. • 2. Spleen weight. • 3. Colon length. • 4. Histological score. For histological injury evaluation tissues fixed in 10% formalin, were embedded in paraffin wax and cut. 4 μm sections were histologically stained and evaluated by light microscopy for ulceration and inflammation. [table]

[3] = TNBS-induced IBD model in rats (Example 3); type: in vivo, Wistar rats; conditions: TNBS-induced model (FIG. 6); compared to negative and positive controls
Experimental: One day before the experiment the rats were weighted, marked according to the groups, and fasted for 24 hours (for colon emptying). At the day of the experiment the rats were anesthetized by an intra-peritoneal injection of halothene and colitis was induced by intra-rectal administration of 0.4 ml of a 25 mg/ml TNBS solution dissolved in 50% ethanol using an 8-cm long rubber catheter. Then, 0.4 ml of air was injected and the rats were kept in a Trendelenburg position for 30 sec to ensure that all TNBS solution left the catheter. Three rats received intra-rectal administration of saline and served as the negative control group. Coltect, 5-ASA, or their combination, were delivered by daily gavage of 0.5 ml solution starting from day 0. All rats were sacrificed after 7 days. Their 10-cm distal colon was removed, opened longitudinally along the anti-mesenteric side and was gently washed with ice-cold saline in order to remove all luminal content. Colon wet weight was weighed and the colonic injury was immediately examined under a stereomicroscope and the visible damage was scored, then part of the colons was placed in 10% formalin for histological evaluation and parts were frozen at […] for later evaluation. The induction and severity of colitis were evaluated by measuring: • 1. Daily body weight. • 2. Colon weight. • 3. Macro-Histological score damage.

[4] = system: Aberrant Crypt Foci (ACF); assay: DMH-induced ACF formation, Coltect versus its ingredients (Example 5a); type: in vivo, Wistar rats; conditions: DMH 50 mg/kg rats; daily oral gavage 2 weeks; sacrificed after 2 months (FIG. 10A)
Experimental: In these experiments the concentration of the ingredients used was determined based on their ratio in the Coltect mixture. As used in the above experiments, the Coltect concentration administered to the model animals was 150 mg/kg. Since a ratio of ⅔ Curcumin to ⅓ Green Tea was used in the Coltect mixture, the administered Curcumin concentration was 100 mg/kg and the Green tea concentration was 50 mg/kg. The Curcumin to Selenium ratio in the Coltect mixture was 500 mg Curcumin to 0.1 mg Selenium, therefore, the administered Selenium concentration was 0.02 mg/kg body weight. The final administered concentrations of the Coltect components are presented in Table 6 below: Forty seven age- and sex-matched Wistar rats were obtained from the animal facility at TASMC. The rats were injected subcutaneously twice a week for two weeks with 0.3 ml of 50 mg/kg body weight DMH (Sigma-Aldrich, Israel) dissolved in PBS, and groups were randomly divided as shown in Table 7. The Coltect compound and its components were daily administered simultaneously for 2 weeks by oral gavage. The rats were sacrificed after 2 months. Reference is now made to FIG. 9 presenting Methylene blue ACF staining performed according to the protocol described in the above Example 1, of normal mucosa (A) aberrant crypt foci containing small ACF with 1-3 crypts (B) and large ACF with more than three crypts (C).

[5] = DSS-induced colitis in mice, Coltect versus its components (Example 5b); type: in vivo, C57BL mice
Experimental: In these experiments the concentration of the ingredients used was determined based on their ratio in the Coltect mixture. As used in the above experiments, the Coltect concentration administered to the model animals was 150 mg/kg. Since a ratio of ⅔ Curcumin to ⅓ Green Tea was used in the Coltect mixture, the administered Curcumin concentration was 100 mg/kg and the Green tea concentration was 50 mg/kg. The Curcumin to Selenium ratio in the Coltect mixture was 500 mg Curcumin to 0.1 mg Selenium, therefore, the administered Selenium concentration was 0.02 mg/kg body weight.
Age- and sex-matched C57BL 5-weeks old female mice were obtained from Harlan Laboratories, Israel. After one week of acclimation, the mice (n=52) were treated with 2.5% DSS administered in the drinking water for 5 days ad libitum, followed by two days of tap water. The treatments were given in doses of 0.3 ml of tap water with 2% DMSO by oral gavage. The mice were randomly divided into 8 sub-groups (n=6) and a control group (n=4) treated as described in Table 8.

**Q.** Which “Number of crypts in treated colons: 1-3 crypts” value [1] does the source give for Nc1ccc(O)c(C(=O)O)c1 [5-ASA, 5-aminosalicylic acid] here?
**A.** Its value is 28 ± 4.1.

**Q.** And the “Number of crypts in treated colons: >4 crypts” value [1]?
**A.** The value was 11.6 ± 3.9.

**Q.** What about the DAI score [2] of the same molecule?
**A.** Its DAI score is “relatively higher DAI scores”.

**Q.** And the “Changes in body weight” value [3]?
**A.** The value was “no substantial changes in body weight”.

**Q.** Which results are given for C[Se]CC[C@H](N)C(=O)O [Selenium, Selenomethionine]?
**A.** Reduction in number of ACFs relative to the positive control [4]: about 30%; DAI score ([5]; DSS 2.5% mice (FIG. 11), oral gavage): 2.33±1.33; Colon length, in words ([5]; DSS-induced mice, day seven (FIG. 12)): longer colons
